Results reported in patent US6492378B1, “Substituted isoquinoline derivatives and their use as anticonvulsivants” (SmithKline Beecham p.l.c., priority 1998, dated 2002).

Test system: maximal electroshock seizure (MEST) threshold in rodents
Assay: MEST test (maximal electroshock seizure threshold)
Format: in vivo
Settings: 2 mg/kg p.o. at 2 h post-dose
Procedure: 2. MEST Test The maximal electroshock seizure (MEST) threshold test in rodents is particularly sensitive for detecting potential anticonvulsant properties^1. In this model, anticonvulsant agents elevate the threshold to electrically-induced seizures whilst proconvulsants lower the seizure threshold. Method for Mouse Model Mice (naive male, Charles River, U.K. CD-1 strain, 25-30 g) are randomly assigned to groups of 10-20 and dosed orally or intraperitoneally at a dose volume of 10 ml/kg with various doses of compound (0.3-300 mg/kg) or vehicle. Mice are then subjected at 30 or 60 min post dose to a single electroshock (0.1 sec, 50 Hz, sine wave form) administered via corneal electrodes. The mean current and standard error required to induce a tonic seizure in 50% (CC50) of the mice in a particular treatment group is determined by the ‘up and down’ method of Dixon and Mood (1948)^2. Statistical comparisons between vehicle- and drug-treated groups are made using the method of Litchfield and Wilcoxon (1949)^3. In control animals the CC50 is usually 14-18 mA. […] If a tonic convulsion does occur, then the current is decreased, and so on until all the animals in the group have been tested. Studies are carried out using a Hugo Sachs Electronik Constant Current Shock Generator with totally variable control of shock level from 0 to 300 mA and steps of 2 mA are usually used. Method for Rat Model The threshold for maximal (tonic hindlimb extension) electroshock seizures in male rats (Sprague Dawley, 80-150 g, 6 weeks old) was determined by a Hugo Sachs Electronik stimulator which delivered a constant current (0.3 sec duration; from 1-300 mA in steps of 5-20 mA). The procedure is similar to that outlined above for mouse and full details are as published by Upton et al,.^4 The percentage increase or decrease in CC50 for each group compared to the control is calculated. Drugs are suspended in 1% methyl cellulose.

Structure (SMILES) | % increases in seizure threshold [%]
COc1ccc(C(=O)Nc2ccc3c(c2)CN(C)CC3(C)C)cc1Br [Example E15, N-(2,4,4-Trimethyl-1,2,3,4-tetrahydroisoquinolin-7-yl)-3-bromo-4-methoxybenzamide] | 263
COc1ccc(C(=O)Nc2ccc3c(c2)CN(C)CC3(C)C)cc1I [Example E17, N-(2,4,4-Trimethyl-1,2,3,4-tetrahydroisoquinolin-7-yl)-3-iodo-4-methoxybenzamide] | 314
COc1cc(OC(C)C)c(Cl)cc1C(=O)Nc1cccc2c1C(C)(C)CN(C)C2 [Example E29, N-(2,4,4-Trimethyl-1,2,3,4-tetrahydroisoquinolin-5-yl)-5-chloro-2-methoxy-4-iso-propyloxybenzamide] | 310
COc1cc(C(C)C)c(C(F)(F)F)cc1C(=O)Nc1cccc2c1C(C)(C)CN(C)C2 [Example E34, N-(2,4,4-Trimethyl-1,2,3,4-tetrahydroisoquinolin-5-yl)-2-methoxy-4-iso-propyl-5-trifluoromethylbenzamide] | 280
CCc1c(NC(=O)c2ccc(OC(C)C)c(C(C)=O)c2)ccc2c1CN(C)CC2(C)C [Example E48, N-(8-Ethyl-2,4,4-trimethyl-1,2,3,4-tetrahydroisoquinolin-7-yl)-3-acetyl-4-iso-propyloxybenzamide] | 240
COc1ccc(C(=O)Nc2ccc3c(c2)CN(C)C(C)(C)C3)cc1C(F)(F)F [Example E69, N-(2,3,3-Trimethyl-1,2,3,4-tetrahydroisoquinolin-7-yl)4-methoxy-3-trifluoromethylbenzamide] | 340
